# How the values were obtained:
# Type in all cases: cell-based
# Details in all cases: topical 50 μl, 6 hours after treatment, related to G3PDH messenger
# [1] = test system: cytokeratin 6B (K6B) gene; assay: RT-qPCR gene expression in Episkin reconstructed epidermis: cytokeratin 6B
# Procedure: (§1) The effects of the following four compositions were tested on the differentiation of Episkin® reconstructed epidermis. • A: formulation support (ethyl alcohol (3%) and water (97%)), • B: lysate (ethyl alcohol (3%), water (87%), lysate (10%)), • C: phytosphingosine salicylate (ethyl alcohol (3%), water (96.998%), phytosphingosine salicylate (0.002%)), and • D: combination in accordance with the invention=(0.002% phytosphingosine salicylate+10% lysate+ethyl alcohol (3%)+water (86.998%)).
# (§2) J6 Episkin® reconstructed epidermis were placed in 12-well plates containing 2 ml of a maintenance medium and cultured at 37° C. and 5% CO2 for 24 hours. […]
# (§3) These effects were characterized by analysing the expression of the cytokeratin 6B (K6B), cytokeratin 10 (K10) and involucrin (INV) genes using a real-time PCR method (quantitative PCR, qPCR) 6 hours after treatment.
# (§4) The expression of the markers selected was evaluated by RT-qPCR on the messenger RNA extracted from the Episkin® reconstructed epidermis of each treatment (the duplicates were pooled before RNA extraction) 6, 24 and 48 hours after treatment. […]
# (§5) The incorporation of fluorescence into the amplified DNA is measured continuously during the PCR cycles. This system makes it possible to obtain curves of the fluorescence measurement as a function of the PCR cycles and thus to evaluate a relative expression value for each marker. […]
# [2] = test system: cytokeratin 10 (K10) gene; assay: RT-qPCR gene expression in Episkin reconstructed epidermis: cytokeratin 10
# Procedure: as §1, §2, §3, §4, §5
# involucrin (INV) gene = assay: RT-qPCR gene expression in Episkin reconstructed epidermis: involucrin
# Procedure: as §1, §2, §3, §4, §5
substance,measurement,setting,value
phytosphingosine salicylate [Composition C],K6B expression,[1],158 % of the untreated control
same,K10 expression,[2],122 % of the untreated control
same,INV expression,involucrin (INV) gene,146 % of the untreated control

# Reference: US8709454B2, “Combination of a microorganism and a phytosphingosine derivative, composition, methods of use” (L'Oreal, priority 2009, dated 2014)
